Data taken from PubChem BioAssay AID248 (DTP/NCI, 2004).
“And” between values parts separate entries of the source, which are not always exact repeats. Equal entries are not always repeated. Toxic doses and inconclusive results are not listed. Rule as the data show it: active = T/C of 150% or more; inactive = T/C below 125%.

System: L1210 leukemia ip in BDF1 mice, survival T/C
Assay: NCI In Vivo Anticancer Drug Screen. Data for tumor model L1210 Leukemia (intraperitoneal) in B6D2F1 (BDF1) mice
Settings: endpoint: mean survival time, higher = longer survival
In short: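 Each compound was tested against a transplantable tumor grown in mice. The endpoint was survival, with treated animals benchmarked against vehicle controls as a simple ratio.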

[1] = dose: 100.0 mg/kg/injection, schedule: Q01DX001 (ip), vehicle: acetone
[2] = dose: 100.0 mg/kg/injection, schedule: Q04DX003 (ip), vehicle: saline
[3] = dose: 200.0 mg/kg/injection, schedule: Q01DX001 (ip), vehicle: acetone
[4] = dose: 200.0 mg/kg/injection, schedule: Q04DX003 (ip), vehicle: saline
[5] = dose: 400.0 mg/kg/injection, schedule: Q01DX001 (ip), vehicle: acetone
[6] = dose: 400.0 mg/kg/injection, schedule: Q04DX003 (ip), vehicle: saline
[7] = dose: 100.0 mg/kg/injection, schedule: Q04DX003 (ip), vehicle: Klucel (hydroxypropylcellulose) (HPC)
[8] = dose: 200.0 mg/kg/injection, schedule: Q04DX003 (ip), vehicle: Klucel (hydroxypropylcellulose) (HPC)
[9] = dose: 100.0 mg/kg/injection, schedule: Q04DX002 (ip), vehicle: Klucel (hydroxypropylcellulose) (HPC)
[10] = dose: 50.0 mg/kg/injection, schedule: Q01DX001 (ip), vehicle: carboxymethylcellulose (CMC)
[11] = dose: 100.0 mg/kg/injection, schedule: Q01DX001 (ip), vehicle: carboxymethylcellulose (CMC)
[12] = dose: 200.0 mg/kg/injection, schedule: Q01DX001 (ip), vehicle: carboxymethylcellulose (CMC)
[13] = dose: 100.0 mg/kg/injection, schedule: Q01DX009 (ip), vehicle: Klucel (hydroxypropylcellulose) (HPC)
[14] = dose: 200.0 mg/kg/injection, schedule: Q01DX009 (ip), vehicle: Klucel (hydroxypropylcellulose) (HPC)
[15] = dose: 400.0 mg/kg/injection, schedule: Q01DX009 (ip), vehicle: Klucel (hydroxypropylcellulose) (HPC)
[16] = dose: 100.0 mg/kg/injection, schedule: Q01DX001 (ip), vehicle: Klucel (hydroxypropylcellulose) (HPC)
[17] = dose: 200.0 mg/kg/injection, schedule: Q01DX001 (ip), vehicle: Klucel (hydroxypropylcellulose) (HPC)
[18] = dose: 400.0 mg/kg/injection, schedule: Q01DX001 (ip), vehicle: carboxymethylcellulose (CMC)
[19] = dose: 400.0 mg/kg/injection, schedule: Q04DX003 (ip), vehicle: Klucel (hydroxypropylcellulose) (HPC)

Measured: T/C

O=C(OCCOCCOCCOCCOCCOCCOCCOCCOCCOCCOCCOCCOCCOCCOCCOCCOCCOCCOCCOCCOCCOCCOC(=O)N1CC1)N1CC1
inactive: [1] 94 % of control | dose: 100.0 mg/kg/injection, schedule: Q01DX009 (ip), vehicle: acetone 98 % of control | [2] 100 % of control | [3] 94 % of control | dose: 200.0 mg/kg/injection, schedule: Q01DX009 (ip), vehicle: acetone 95 % of control | [4] 103 % of control | [5] 97 % of control | [6] 108 % of control

CC(C)CNC(=O)Nc1ccc(Cl)c(Cl)c1
inactive: dose: 100.0 mg/kg/injection, schedule: Q01DX001 (ip), vehicle: saline 97 % of control | dose: 200.0 mg/kg/injection, schedule: Q01DX001 (ip), vehicle: saline 95 % of control | dose: 400.0 mg/kg/injection, schedule: Q01DX001 (ip), vehicle: saline 95 % of control

CC(C)NC(=O)C1C2CC3OC(=O)C1C3C2 (centres undefined)
inactive: [2] 98 % of control | [4] 98 % of control and 88 % of control | [6] 101 % of control and 95 % of control

Clc1ccc2nccnc2c1
inactive: [7] 97 % of control | [8] 107 % of control

CC(=O)OCC1OC(OCC2OC(Sc3ccccc3)C(OC(C)=O)C(OC(C)=O)C2OC(C)=O)C(OC(C)=O)C(OC(C)=O)C1OC(C)=O (centres undefined)
inactive: [9] 89 % of control | dose: 200.0 mg/kg/injection, schedule: Q04DX002 (ip), vehicle: Klucel (hydroxypropylcellulose) (HPC) 86 % of control | dose: 400.0 mg/kg/injection, schedule: Q04DX002 (ip), vehicle: Klucel (hydroxypropylcellulose) (HPC) 86 % of control

c1ccc(-c2cnc[nH]2)cc1
inactive: [10] 100 % of control | [11] 109 % of control | [12] 117 % of control

COC(=O)C1(C)CCCC2(C)c3cc(O)c(C(C)C)cc3CCC12 (centres undefined)
inactive: [1] 88 % of control | [3] 90 % of control | [5] 93 % of control

COc1ccc(C)cc1NC(=O)Nc1ccc(SC)cc1
inactive: [13] 87 % of control | [14] 95 % of control | [15] 90 % of control

Cc1ccc(COP(=O)(c2ccccc2)c2ccccc2)cc1
inactive: dose: 66.0 mg/kg/injection, schedule: Q01DX001 (ip), vehicle: Klucel (hydroxypropylcellulose) (HPC) 98 % of control | [16] 93 % of control | dose: 150.0 mg/kg/injection, schedule: Q01DX001 (ip), vehicle: Klucel (hydroxypropylcellulose) (HPC) 97 % of control | [17] 91 % of control

CCCCCCC1CCC(C(=O)O)CC1 (centres undefined)
inactive: [16] 96 % of control | [13] 98 % of control | [17] 97 % of control | [14] 98 % of control | dose: 400.0 mg/kg/injection, schedule: Q01DX001 (ip), vehicle: Klucel (hydroxypropylcellulose) (HPC) 97 % of control | [15] 89 % of control

CCCCC[C@@H](CN(C)C)[C@H](O)/C=C/c1ccc(Cl)cc1
inactive: dose: 12.5 mg/kg/injection, schedule: Q01DX009 (ip), vehicle: saline 102 % of control | dose: 12.5 mg/kg/injection, schedule: Q04DX003 (ip), vehicle: saline 88 % of control | dose: 25.0 mg/kg/injection, schedule: Q01DX009 (ip), vehicle: saline 98 % of control | dose: 25.0 mg/kg/injection, schedule: Q04DX003 (ip), vehicle: saline 93 % of control | dose: 50.0 mg/kg/injection, schedule: Q01DX009 (ip), vehicle: saline 93 % of control and 97 % of control | dose: 50.0 mg/kg/injection, schedule: Q04DX003 (ip), vehicle: saline 93 % of control | [4] 102 % of control

O=c1[nH]c(-c2ccccc2)nc2c1OCN(Cc1ccccc1)C2
inactive: [10] 98 % of control | [11] 101 % of control | [12] 98 % of control | [18] 93 % of control

CC(C)OC(=O)c1ccccc1-c1ccccc1
inactive: dose: 100.0 mg/kg/injection, schedule: Q01DX001 (ip), vehicle: other 102 % of control | dose: 200.0 mg/kg/injection, schedule: Q01DX001 (ip), vehicle: other 96 % of control | dose: 400.0 mg/kg/injection, schedule: Q01DX001 (ip), vehicle: other 87 % of control

Clc1ccc(-c2nc3ccccc3cc2N2CCOCC2)cc1
inactive: [7] 108 % of control | [8] 103 % of control | [19] 100 % of control

c1ccc(C2C(CN3CCCCCC3)C2c2ccccc2)cc1 (centres undefined)
inactive: dose: 12.5 mg/kg/injection, schedule: Q04DX002 (ip), vehicle: Klucel (hydroxypropylcellulose) (HPC) 88 % of control | dose: 25.0 mg/kg/injection, schedule: Q04DX002 (ip), vehicle: Klucel (hydroxypropylcellulose) (HPC) 95 % of control and 98 % of control | dose: 50.0 mg/kg/injection, schedule: Q04DX002 (ip), vehicle: Klucel (hydroxypropylcellulose) (HPC) 98 % of control and 101 % of control and 91 % of control | [9] 92 % of control

CC1(C)CN(CCC#N)C(c2ccc([N+](=O)[O-])cc2)O1 (centres undefined)
inactive: [10] 106 % of control | [11] 106 % of control | [12] 114 % of control | [18] 108 % of control

CSc1nc(Cl)c(-c2ccccc2)c(N2CC2)n1
inactive: dose: 25.0 mg/kg/injection, schedule: Q01DX Z (ip), vehicle: methylcellulose (MC) 98 % of control | dose: 50.0 mg/kg/injection, schedule: Q01DX Z (ip), vehicle: methylcellulose (MC) 90 % of control

CCCCCCc1cc(OC(=O)c2ccccc2)ccc1OC(=O)c1ccccc1
inactive: [10] 94 % of control | [11] 97 % of control | [12] 89 % of control | [18] 97 % of control

O=C1c2ccccc2C(=O)N1CCc1ccccc1
inactive: [13] 93 % of control | [7] 97 % of control and 101 % of control | [14] 96 % of control | [8] 94 % of control and 97 % of control | [15] 95 % of control | [19] 94 % of control and 101 % of control

C=C(C)C#CCN(CCO)C(C)C
inactive: dose: 75.0 mg/kg/injection, schedule: Q01DX001 (ip), vehicle: other 96 % of control | dose: 150.0 mg/kg/injection, schedule: Q01DX001 (ip), vehicle: other 96 % of control

CN(C)c1ccccc1C1CCCCCC1O (centres undefined)
inactive: dose: 75.0 mg/kg/injection, schedule: Q01DX001 (ip), vehicle: carboxymethylcellulose (CMC) 101 % of control | dose: 150.0 mg/kg/injection, schedule: Q01DX001 (ip), vehicle: carboxymethylcellulose (CMC) 90 % of control | dose: 300.0 mg/kg/injection, schedule: Q01DX001 (ip), vehicle: carboxymethylcellulose (CMC) 90 % of control

Cc1ccc(C)c(NC(=O)c2ccc(Cl)c(Cl)c2)c1
inactive: dose: 1.5 mg/kg/injection, schedule: Q01DX009 (ip), vehicle: Klucel (hydroxypropylcellulose) (HPC) 92 % of control | dose: 3.0 mg/kg/injection, schedule: Q01DX009 (ip), vehicle: Klucel (hydroxypropylcellulose) (HPC) 99 % of control | dose: 6.0 mg/kg/injection, schedule: Q01DX009 (ip), vehicle: Klucel (hydroxypropylcellulose) (HPC) 97 % of control | dose: 6.25 mg/kg/injection, schedule: Q01DX009 (ip), vehicle: Klucel (hydroxypropylcellulose) (HPC) 88 % of control | dose: 50.0 mg/kg/injection, schedule: Q01DX009 (ip), vehicle: Klucel (hydroxypropylcellulose) (HPC) 86 % of control | [7] 93 % of control | [8] 91 % of control | [15] 86 % of control | [19] 90 % of control

Nc1ccc(NC(=S)Nc2ccccc2)cc1
inactive: [13] 104 % of control | [7] 93 % of control | [14] 101 % of control | [8] 95 % of control | [15] 97 % of control | [19] 92 % of control

CCOC(=O)C1=C(O)c2c(sc(C)c2-c2ccccc2)N(S(=O)(=O)c2ccc(C)cc2)CC1
inactive: dose: 50.0 mg/kg/injection, schedule: Q04DX003 (ip), vehicle: saline with Tween-80 98 % of control | dose: 100.0 mg/kg/injection, schedule: Q04DX003 (ip), vehicle: saline with Tween-80 93 % of control | dose: 200.0 mg/kg/injection, schedule: Q04DX003 (ip), vehicle: saline with Tween-80 93 % of control | dose: 400.0 mg/kg/injection, schedule: Q04DX003 (ip), vehicle: saline with Tween-80 98 % of control
